Assay results reported in publication PMC6068397 (ACS nano, 2018).
“Also recorded” adds a separate entry of the source.

Experiments:
[1] = tested on: water-soluble μ-opioid receptor (wsMOR); type: binding, human; conditions: 1× PBS
native MOR [2] = conditions: cited from earlier work
[3] = tested on: water-soluble μ-opioid receptor (wsMOR); experiment: wsMOR-functionalized graphene field-effect transistor; type: binding, human; conditions: GFET, 1 nM oxytocin solution
native MOR [4] = conditions: optical assays; cited from earlier work

## oxytocin
[1]; concentrations below 1 μM, graphene microelectrode
  Response of the biosensor (selectivity, negative control): essentially negligible
Native MOR [2]
  Specific binding to native MOR: known not to bind specifically to native MOR
[3]
  Level of nonspecific binding to wsMOR: low level of nonspecific binding
[3]; negative control
  Sensor response (shift of the Dirac voltage, ΔVD): 0.17 V

## [D-Ala^2, N-MePhe^4, Gly-ol]-enkephalin
Native MOR [4]
  KA, binding between native MOR and enkephalin: 1.2−3.1 nM

## β-endorphin
[1]; larger than the amplitude found for enkephalin
  Ratio of amplitude A, β-endorphin to enkephalin: ~ 1.6 times
[1]; physiological ionic strength
  Limit of detection: picomolar range; also recorded: picomolar level
